Test results as given in article PMC10142028, “Influence of Molecular Structure and Physicochemical Properties of Immunosuppressive Drugs on Micelle Formulation Characteristics and Cutaneous Delivery” (Pharmaceutics, 2023).
In brackets after ≈: the same amount, converted by molar mass. Entries after “also recorded” stand apart in the source; their conditions may differ. Where two headings read alike, the source gives them in different places.

Experiments:
[1] = Drug solubility in water and in aqueous solution of TPGS; assay type: physicochemical; settings: for Improvement of drug water solubility by addition of 50 mg/mL TPGS: TPGS 50 mg/mL solution vs water; for solubility at 24 h: thermodynamic from solid; for Aqueous solubility: in words, measured experimentally
Method: The solutions were kept at room temperature during a 24 h period of stirring. The samples were then centrifuged and the supernatant was collected and diluted in ACN prior to a UHPLC-MS/MS analysis. All the samples were prepared in triplicate.

[2] = Drug content determination of micelle formulations (UHPLC-UV); assay type: physicochemical; settings: for Drug content of Formulation 5: Formulation 5, corresponds to approximately 2.3 mg/mL; for Water solubility reached by polymeric micelle formulation: corresponding to approximately 4.5 mg/mL
Method: Micelle formulations were prepared using the thin-film hydration method. […] The acetone was slowly removed by rotary evaporation (Büchi Vac V-513 Rotavapor®; Flawil, Switzerland) until the formation of a uniform thin-film, which was left under the hood overnight and then hydrated with 4 mL of ultrapure water. After equilibration for 2 h, the micelle solution was centrifuged at 10,000 rpm for 15 min (Eppendorf Centrifuge 5804; Hamburg, Germany) to remove excess drug, and the supernatant was carefully collected.
The micelle formulation was optimized in order to reach a high drug loading. […] The formulation with the highest drug content, which satisfied reproducibility and stability criteria, was chosen for the subsequent in vitro release and skin delivery studies. Drug loading was determined by UHPLC-UV.
The amount of drug loaded in the micelles was quantified by UHPLC-UV. To ensure the complete destruction of the micelles and the release of encapsulated drug, samples were diluted in ACN prior to analysis. (1) Drug contentmgdrug/mLformulation=mass of drug in the formulationmg/volume of the formulationmL (2) Drug loadingmgdrug/gpolymer=drug in the formulationmg mL^−1/copolymer in the formulationg mL^−1 (3) Incorporation efficiency%=mass of drug incorporated in micellesmg/mass of drug introducedmg×100

[3] = Stability of the micelle solution after storage at 4 °C for 5 months; assay type: physicochemical; settings: Formulation 6 (target 5 mg/mL), followed for 5 months
Method: Stability of the micelle solution was evaluated after storage at 4 °C for 5 months. Drug content and micelle size were determined at a series of time points (day 1, and then after 1, 2, 3, 4, and 5 months).

Porcine ear skin [4] = settings: pig, 12 h, 0.2 %, pH 7.4
Method: (§1) Porcine ear skin was used for skin delivery studies and was supplied by a local abattoir (CARRE; Rolle, CH). Briefly, skin samples were processed with a Zimmer air dermatome (Münsingen, Switzerland) to obtain pieces with a thickness of ∼800 µm. Hair was removed carefully from the skin surface using clippers. Circular disks of 30 mm were then punched out (Berg & Schmid HK 500; Urdorf, Switzerland) and stored at −20 °C until use, for a maximum period of 3 months.
(§2) Porcine skin samples were mounted in Franz diffusion cells (Milian SA; Meyrin, Switzerland) with a formulation contact area of 2 cm^2. In the donor compartment, the optimal micelle solution 0.2% was applied under infinite dose conditions (500 µL/cm^2) during 12 h. The receptor compartment was filled with 10 mL of phosphate buffered saline at pH 7.4 containing 1% BSA. The receiver phase was stirred at 250 rpm and maintained at 32 °C throughout the experiment. […] After the experiment, 1 mL of this phase was withdrawn to quantify drug permeation. Samples were diluted in ACN to precipitate BSA. After centrifugation at 5000 rpm at 4 °C during 15 min, the permeation samples were analysed by UHPLC-MS/MS. Each skin sample was carefully cleaned with a cotton swab and a wash solution to remove the residual formulation from skin surface.
(§3) At the end of the experiment, a small area, 0.8 cm^2, was punched out from the 2 cm^2 skin samples. These skin discs were snap-frozen in isopentane cooled by liquid nitrogen, followed by cryotoming (Thermo Scientific CryoStarTM NX70; Reinach, Switzerland) to obtain two lamellae with a thickness of 20 µm and 19 lamellae with a thickness of 40 μm. […] Drug deposited in each lamella was extracted in 300 µL of ACN overnight with continuous stirring at room temperature. The extraction samples were centrifuged at 5000 rpm for 10 min and diluted prior to UHPLC-MS/MS analysis.

[5] = source not given; cited from earlier work
skin (porcine or human) = test system: skin (porcine or human); set-up: method as in PMID 16176283, PMID 14698574; settings: independent of skin origin (porcine or human) and formulation composition; cited from earlier work
skin proteins = test system: skin proteins; set-up: method as in PMID 18524871; settings: compared to TAC; cited from earlier work
Porcine ear skin [6] = test: Skin delivery in vitro under infinite dose conditions and cutaneous biodistribution (Franz diffusion cells); settings: micelle solution 0.2%, 12 h; for Drug deposition in skin regions (comparison): porcine skin; for Permeation across the skin (concentration, under the limit of quantification): receptor phase
Method: as §1, §2, §3

[7] = aqueous solution of TPGS (50 mg/mL), aqueous with cosolvent or surfactant or cyclodextrin, Drug solubility at TPGS concentration (33 mM or 50 mg/mL), room temperature, 24 h
[8] = water, water, room temperature, 24 h stirring, read-out: Drug solubility in water
[9] = aqueous solution of TPGS (50 mg/mL), aqueous with cosolvent or surfactant or cyclodextrin, Solubility on simple addition of the drug in the aqueous solution of TPGS, TPGS 50 mg/mL

CO[C@H]1C[C@@H]2CC[C@@H](C)[C@@](O)(O2)C(=O)C(=O)N2CCCC[C@H]2C(=O)O[C@H]([C@H](C)C[C@@H]2CC[C@@H](O)[C@H](OC)C2)CC(=O)[C@H](C)/C=C(\C)[C@@H](O)[C@@H](OC)C(=O)[C@H](C)C[C@H](C)/C=C/C=C/C=C/1C [SIR, sirolimus]
Solubility on simple addition of the drug in the aqueous solution of TPGS ([1]; TPGS 50 mg/mL): 1200 µM
Improvement of drug water solubility by addition of 50 mg/mL TPGS [1]: 147 fold
solubility at 24 h [1, 7]: 1210 ± 124 µM (≈ 1110 µg/mL)
Aqueous solubility [1]: Poor
solubility at 24 h [1, 8]: 8.24 ± 0.22 µM (≈ 7.53 µg/mL)
Drug content of Formulation 5 [2]: 2.5 mM
Water solubility reached by polymeric micelle formulation [2]: 4900 µM
Stability of Formulation 6 in terms of drug content [3]: became unstable after 4 months
Permeation across the skin (concentration, under the limit of quantification) (Porcine ear skin [4]): < 3 ng/mL
Ionizable [5]: No

CC[C@@H]1/C=C(\C)C[C@H](C)C[C@H](OC)[C@H]2O[C@@](O)(C(=O)C(=O)N3CCCC[C@H]3C(=O)O[C@H](/C(C)=C/[C@@H]3CC[C@H](Cl)[C@H](OC)C3)[C@H](C)[C@@H](O)CC1=O)[C@H](C)C[C@@H]2OC [PIM, pimecrolimus]
Improvement of drug water solubility by addition of 50 mg/mL TPGS [1]: 1943 fold
solubility at 24 h [1, 7]: 330 ± 31.2 µM (≈ 268 µg/mL)
solubility at 24 h [1, 9]: 300 µM (≈ 243 µg/mL)
Aqueous solubility [1]: Poor
solubility at 24 h [1, 8]: 0.17 ± 0.02 µM (≈ 0.138 µg/mL)
Drug content of Formulation 5 [2]: 2.8 mM
Water solubility reached by polymeric micelle formulation [2]: 5600 µM
Stability of Formulation 6 in terms of drug content [3]: remained stable during the 5 months
Permeation across the skin (comparison) (skin (porcine or human)): lower than TAC
Affinity/binding to skin components (comparison) (skin proteins): stronger affinity with the components of the upper layers of the skin compared to TAC; also recorded: higher capacity-binding to other skin proteins
Ionizable [5]: No
Drug deposition in skin regions (comparison) (Porcine ear skin [6]): high percentage of PIM was delivered in the stratum corneum; also recorded: higher in the viable epidermis in comparison to SIR and TAC; also recorded: significantly higher in the upper region of the skin (20–180 µm)
Permeation across the skin (concentration, under the limit of quantification) (Porcine ear skin [6]): < 3 ng/mL

C=CC[C@@H]1/C=C(\C)C[C@H](C)C[C@H](OC)[C@H]2O[C@@](O)(C(=O)C(=O)N3CCCC[C@H]3C(=O)O[C@H](/C(C)=C/[C@@H]3CC[C@@H](O)[C@H](OC)C3)[C@H](C)[C@@H](O)CC1=O)[C@H](C)C[C@@H]2OC [TAC, tacrolimus]
Improvement of drug water solubility by addition of 50 mg/mL TPGS [1]: 3184 fold
solubility at 24 h [1, 7]: 637 ± 73.5 µM (≈ 512 µg/mL)
solubility at 24 h [1, 9]: 600 µM (≈ 482 µg/mL)
Aqueous solubility [1]: Poor
solubility at 24 h [1, 8]: 0.2 ± 0.05 µM (≈ 0.161 µg/mL)
Drug content of Formulation 5 [2]: 2.9 mM
Water solubility reached by polymeric micelle formulation [2]: 5600 µM
Stability of Formulation 6 in terms of drug content [3]: remained stable during the 5 months
Ionizable [5]: No
Drug deposition in skin regions (comparison) (Porcine ear skin [6]): large percentage of skin deposition in the dermis
Permeation across the skin (concentration, under the limit of quantification) (Porcine ear skin [6]): < 3 ng/mL
